Laboratory results reported in patent US20220354817A1, “PHARMACEUTICAL COMPOSITION FOR PREVENTING OR TREATING SARCOPENIA CONTAINING NON-NATURAL AMINO ACID DERIVATIVE” (MYO-TEC-SCI, priority 2019, published 2022).
Structures can show the parent of a compound that is named as a salt.

How the values were obtained:
myostatin mRNA = assay: Myostatin mRNA expression by qRT-PCR in C2C12 cells, corrected with beta-actin; format: cell-based, mouse; conditions: for inhibition of myostatin mRNA expression: 0.1 mM and 1 mM in medium without L-leucine
Text: […] After one day, the mRNA expression level of myostatin was identified using qRT-PCR, and the myostatin mRNA expression value was corrected using the expression value of beta-actin.

[1] = test system: mouse skeletal muscle cells C2C12; assay: Degree of differentiation of C2C12 cells and number of differentiated intracellular nuclei; format: cell-based; conditions: 1 mM in differentiation medium, C2C12 grown without L-leucine; for cells in which differentiation occurs, compared to L-leucine: days 1, 6, 9
Procedure: (§1) To observe how L-leucine and D-Leu-OMe-HCl act on the differentiation of mouse skeletal muscle cells C2C12, a differentiation medium containing 1 mM L-leucine and D-Leu-OMe-HCl was given to mouse skeletal muscle cells C2C12 continuously grown in a medium without L-leucine, respectively. On days 1, 6, and 9, the degree of differentiation of mouse skeletal muscle cells and the number of nuclei present in the differentiated cells were measured (see FIG. 13).
as §1, with “D-Leu-BOC—H2O” for “D-Leu-OMe-HCl”, “15).” for “13).”

myostatin promoter = assay: Myostatin promoter activity, dual luciferase assay in C2C12 cells transfected with pGL4.15-MSTN; format: cell-based, mouse; conditions: for inhibition of myostatin promoter activity: 0.1 mM and 1 mM in medium without L-leucine; for inhibition of myostatin promoter activity / decrease in myostatin promoter activity compared to L-leucine: C2C12; for decrease in myostatin promoter activity compared to L-leucine: 1 mM in medium without L-leucine
Procedure: After seeding 1×10^5 cells of mouse skeletal muscle cells C2C12 (ATCC, US) in a 12-well culture plate, on the next day, pGL4.15 empty vector and pGL4.15-MSTN vector containing myostatin promoter were transfected using Lipofectamine 2000 for 4 hours. […] After one day, a dual luciferase assay kit (Promega Inc.) was used to measure the promoter activity of myostatin.

[2] = 1 mM in medium without L-leucine, C2C12
[3] = 0.1 mM in medium without L-leucine, C2C12, after one day

SMILES | inhibition of myostatin mRNA expression (myostatin mRNA; C2C12) | decrease of myostatin mRNA expression level relative to L-leucine (myostatin mRNA; [2]) | cells containing 6 or more nuclei [1] | cells in which differentiation occurs, compared to L-leucine [1] | inhibition of myostatin promoter activity (myostatin promoter) | decrease in myostatin promoter activity compared to L-leucine (myostatin promoter) | decrease in myostatin mRNA expression level compared to L-leucine (myostatin mRNA; 0.1 mM in medium without L-leucine, C2C12) | decrease in myostatin mRNA expression level compared to L-leucine (myostatin mRNA; [2]) | expression of myostatin mRNA (myostatin mRNA; [3]) | myostatin promoter activity (myostatin promoter; [3])
CC(C)CC(NC(=O)OC(C)(C)C)C(=O)O [D-Leu-BOC—H2O] | inhibited | similarly to L-leucine | observed statistically significantly | relatively large number of cells in which differentiation occurs | inhibited | about 1.89 times |  |  |  | 
COC(=O)C(N)CC(C)C [D-Leu-OMe-HCl] | inhibited |  | observed statistically significantly | relatively large number of cells in which differentiation occurs | inhibited | about 1.96 times | about 1.97 times | about 3.68 times |  | 
CC(C)C[C@H](N)C(=O)OC(C)(C)C.Cl [L-Leu-OtBu-HCl] |  |  |  |  |  |  |  |  | decreased | significantly reduced
CC(C)C[C@H](N)C(=O)O [L-leucine, reference compound] | inhibited |  |  |  | inhibited |  |  |  |  | 
